This is an account of results in patent US20120083460A1 (SAN EI GEN F.F.I., INC., priority 2009, published 2012).

A short description of data set [1]: Evaluation of IQC composition solubility in water (Experiment Example 1). The class given is physicochemical. As to conditions: for Solubility (in terms of isoquercitrin, mg/ml): water, shaken at 25° C. for 40 hours, solution pH 4.7-5.7 (Table 1). As for the experimental part: The Samples were added until they could not be dissolved further and formed deposits. Each solution was shaken at 25° C. for 40 hours, and centrifuged at 9,000 rpm for 10 min to collect the supernatant. The supernatant was appropriately diluted with a 0.1% phosphoric acid aqueous solution, and absorbance (340 nm) was measured.

Data set [2] in a line: Evaluation of water solubility with α- and β-cyclodextrins (Reference Experiment Example). The following applies: water (25° C.), method of Experiment Example 1. The class given is physicochemical.
Data set [3] can be described thus: Evaluation of the solubility of other flavonoids in water (Experiment Example 2). The class given is physicochemical. The protocol:
The solubility (mg/ml) of each composition in water in terms of the flavonoid was then determined according to the method of Experiment Example 1. The solubility (mg/ml) of the flavonoid itself in water was also determined as a control, and the solubility (fold) was calculated from the relative ratio of the two.

Data set [4] can be described thus: Evaluation of preservation stability (presence or absence of deposits) in acid and sugar solution (Experiment Example 3). In kind it is physicochemical. On the set-up: key: +: the presence of deposits; −: the absence of deposits; ×: no dissolution in the acid and sugar solution. As to conditions: 30 days. As for the experimental part: Each solution was hot-packed in a 200-ml PET bottle (93° C.). The drink so prepared was allowed to cool, and placed under 50° C., room temperature (25±2° C.), and low-temperature (5° C.) conditions for 30 days. The presence or absence of deposits was then checked by visual inspection.
The drink so prepared was allowed to cool, and placed under 50° C., room temperature (25±2° C.), and low-temperature (5° C.) conditions for 30 days. The presence or absence of deposits was then observed.
In the table, the symbol “+” means the presence of deposits, and “−” the absence of deposits. The symbol “×” means no dissolution in the acid and sugar solution.

Data set [5] in a line: Evaluation of fading suppressing effect, fluorescent light irradiation (Experiment Example 4). The following applies: final IQC 0.01% (γ-CD alone 0.14%), drink pH 3.1. As for the experimental part:
(§1) Specifically, a colorant-containing acidic drink of the formulation below was prepared. […] The drinks were irradiated with a fluorescent light (BIOTRON LH 300, NK System) or a UV Fade Meter (UV Long-Life Fade Meter FAL-3, Suga Test Instruments Co., Ltd.) for the durations presented in Table 6. Absorbance was measured before and after the irradiation, and the percentage remaining color (%) after the irradiation was calculated. Further, as a control test, a colorant-containing acidic drink was irradiated with the UV Fade Meter or fluorescent light as above without adding anything (no addition), and the percentage remaining color (%) after the irradiation was calculated.

The nature of data set [6]: Evaluation of fading suppressing effect, UV Fade Meter irradiation (Experiment Example 4). As to conditions: final IQC 0.01% (γ-CD alone 0.14%), drink pH 3.1. The protocol:
as §1

Data set [7] can be described thus: Evaluation of flavor deterioration suppressing effect, sensory evaluation by six panelists (Experiment Example 5). The following applies: drinks of formulations 1 to 7, IQC added as it is, final IQC 0.01%. The protocol: In the same manner, γ-CD (Wacker Chemical) was added to each drink in a final concentration of 0.14% to prepare a drink that contained γ-CD.
The drinks prepared as above were tested under the severity conditions presented in Table 9, and changes in drink flavor after the test were examined by six panelists in a sensory evaluation. Evaluations were made according to the following criteria on the scale of 1 (stress tested drink (blank) without any addition) to 5 (each drink before the test).
Table 9 presents means values of the scored points evaluated by the six panelists.

The nature of data set [8]: Absorption in the body: IQC metabolites in plasma after oral administration (Experiment Example 6). The class given is in vivo. As to conditions: 375 mg IQC equivalent, person n=1. As for the experimental part: After 1, 2, and 3 hours from the administration, bloods were collected using heparin as anti-coagulant from the person, and centrifuged to obtain plasmas.
About 29,000 unit/ml β-glucuronidase (20 μl) dissolved in 0.58 M sodium acetate buffer (pH 4.9) was added to the plasma (180 μl), and the mixture was left unattended at 37° C. for 30 min. After adding 1 M AsA/10 mM sodium metaphosphate (50 μl, in terms of phosphoric acid) and 20 μg/ml diosmetin (9 μl), the mixture was frozen at −80° C., and freeze dried overnight. The freeze dried sample was suspended in MeOH (1 ml), and centrifuged at 15,000 rpm for 10 min. The supernatant was concentrated and dried, and dissolved in MeOH (90 μl). After adding 200 mM HCl (90 μl), the solution was centrifuged at 15,000 rpm for 10 min to collect the supernatant. The IQC metabolites quercetin, isorhamnetin, and tamarixetin in the plasma were then quantified by HPLC under the conditions below.

[9] abbreviates: Cochineal colorant, fluorescence irradiation 6 D.
[10] abbreviates: Elderberry colorant, fluorescence irradiation 2 D.
[11] abbreviates: Grape juice colorant, fluorescence irradiation 20 D.
The mark [12] stands for this setting: Paprika colorant, fluorescence irradiation 1 D.
Where [13] appears, read: Purple corn colorant, fluorescence irradiation 1 D.
Where [14] appears, read: Purple sweet potato colorant, fluorescence irradiation 8 D.
[15] abbreviates: Red cabbage colorant, fluorescence irradiation 4 D.
The mark [16] stands for this setting: Safflower yellow colorant, fluorescence irradiation 4 D.
[17] abbreviates: β-carotene, fluorescence irradiation 6 D.
[18] abbreviates: Cochineal colorant, UV fade meter irradiation 6 H.
Where [19] appears, read: Elderberry colorant, UV fade meter irradiation 2 H.
[20] abbreviates: Grape juice colorant, UV fade meter irradiation 20 H.
[21] abbreviates: Paprika colorant, UV fade meter irradiation 3 H.
The mark [22] stands for this setting: Purple corn colorant, UV fade meter irradiation 4 H.
Setting [23] is: Purple sweet potato colorant, UV fade meter irradiation 7 H.
The mark [24] stands for this setting: Red cabbage colorant, UV fade meter irradiation 8 H.
The mark [25] stands for this setting: Safflower yellow colorant, UV fade meter irradiation 4 H.
[26] abbreviates: β-carotene, UV fade meter irradiation 17 H.

Molecules are shown by their SMILES. Values joined by “and” are separate entries in the source; they are usually repeats but may differ in a detail not shown here. Identical values can stand only once. Like-named read-outs stand apart in the source and are kept apart here.

As to `O=c1c(O[C@@H]2O[C@H](CO)[C@@H](O)[C@H](O)[C@H]2O)c(-c2ccc(O)c(O)c2)oc2cc(O)cc(O)c12` [IQC, isoquercitrin], the “upper limit solubility in water” value in data set [1] (acidic condition at 25° C.) was 0.0102 mass %. The “Solubility (in terms of isoquercitrin, mg/ml)” value in data set [1] was 0.1020 mg/mL; in data set [1] (listed as Control) it was 0.10 mg/mL; in data set [1] (listed as isoquercitrin) it was 0.102 mg/mL; in data set [2], 0.10 mg/mL. Also, the “Solubility (fold) (in terms of flavonoids)” value in data set [3] (Flavonoid:γ-CD = 1:0 (mole ratio), flavonoid itself = reference 1) is recorded as 1 fold. Besides, the “presence or absence of deposits” value in data set [4] (pH 6, 50° C., flavonoid concentration 0.05%) is given as “−”; in data set [4] (pH 6, Refrigerated (5° C.), flavonoid concentration 0.05%), “+”; in data set [4] (pH 6, Room temperature, flavonoid concentration 0.05%), “+”; in data set [4] (pH 9, 50° C., flavonoid concentration 0.05%) it was “−”; in data set [4] (pH 9, 50° C., flavonoid concentration 0.10%), “−”; in data set [4] (pH 9, Refrigerated (5° C.), flavonoid concentration 0.05%), “+”. Further, the “presence or absence of deposits” value in data set [4] (pH 9, Refrigerated (5° C.), flavonoid concentration 0.10%) is “+”; in data set [4] (pH 9, Room temperature, flavonoid concentration 0.05%), “−”; in data set [4] (pH 9, Room temperature, flavonoid concentration 0.10%), “+”. Besides, the “percentage remaining color (%)” value in data set [5] (setting [9]) is recorded as 75.6%; in data set [5] (setting [10]) it was 64.5%; in data set [5] (setting [11]) it was 91.1%; in data set [5] (setting [12]), 91.3%; in data set [5] (setting [13]), 76.4%; in data set [5] (setting [14]) it was 76.9%. In addition, the “percentage remaining color (%)” value in data set [5] (setting [15]) came to 60.1%; in data set [5] (setting [16]) it was 72.8%; in data set [5] (setting [17]), 71.2%; in data set [6] (setting [18]), 91.1%; in data set [6] (setting [19]), 70.2%; in data set [6] (setting [20]), 93.1%. Further, the “percentage remaining color (%)” value in data set [6] (setting [21]) was 55.8%; in data set [6] (setting [22]) it was 59.8%; in data set [6] (setting [23]), 88.0%; in data set [6] (setting [24]), 50.8%; in data set [6] (setting [25]), 71.6%; in data set [6] (setting [26]) it was 74.2%. Further, the “IQC deposits in the prepared drink” value in data set [7] was “deposits were observed within several hours”. Besides, the Isorhamnetin in plasma was found to be 0 µg/mL in data set [8] (blood collection time 0 h), 0 µg/mL in data set [8] (blood collection time 1 h), 0.02 µg/mL in data set [8] (blood collection time 2 h) and 0.01 µg/mL in data set [8] (blood collection time 3 h). Also, the Quercetin in plasma was determined as 0.02 µg/mL in data set [8] (blood collection time 0 h), 0.01 µg/mL in data set [8] (blood collection time 1 h), 0.15 µg/mL in data set [8] (blood collection time 2 h) and 0.15 µg/mL in data set [8] (blood collection time 3 h). The Tamarixetin in plasma was found to be 0 µg/mL in data set [8] (blood collection time 0 h), 0 µg/mL in data set [8] (blood collection time 1 h), 0.06 µg/mL in data set [8] (blood collection time 2 h) and 0.03 µg/mL in data set [8] (blood collection time 3 h). The “Total flavonoid (quercetin, isorhamnetin, tamarixetin) in plasma” value in data set [8] (blood collection time 0 h) was 0.02 µg/mL; in data set [8] (blood collection time 1 h) it was 0.01 µg/mL; in data set [8] (blood collection time 2 h) it was 0.2 µg/mL and 0.22 µg/mL; in data set [8] (blood collection time 3 h), 0.20 µg/mL. For the same compound, the AUC in data set [8] (total metabolites in plasma, 0-3 h) is 0.34 (μg/ml)·hr.
`O=c1c(O)c(-c2cc(O)c(O)c(O)c2)oc2cc(O)cc(O)c12` [Myricetin, myricetin]: in data set [3], the “Solubility (fold) (in terms of flavonoids)” value came to 1 fold.
Still for that read-out and setting: next, `C[C@@H]1O[C@@H](O[C@H]2[C@H](Oc3cc(O)c4c(c3)O[C@H](c3ccc(O)cc3)CC4=O)O[C@H](CO)[C@@H](O)[C@@H]2O)[C@H](O)[C@H](O)[C@H]1O` [Naringin, naringin]: 1 fold; `O=c1c(O)c(-c2ccc(O)c(O)c2)oc2cc(O)cc(O)c12` [Quercetin, quercetin]: 1 fold.
For the compound `OC[C@H]1O[C@@H]2O[C@H]3[C@H](O)[C@@H](O)[C@@H](O[C@H]4[C@H](O)[C@@H](O)[C@@H](O[C@H]5[C@H](O)[C@@H](O)[C@@H](O[C@H]6[C@H](O)[C@@H](O)[C@@H](O[C@H]7[C@H](O)[C@@H](O)[C@@H](O[C@H]8[C@H](O)[C@@H](O)[C@@H](O[C@H]9[C@H](O)[C@@H](O)[C@@H](O[C@H]1[C@H](O)[C@H]2O)O[C@@H]9CO)O[C@@H]8CO)O[C@@H]7CO)O[C@@H]6CO)O[C@@H]5CO)O[C@@H]4CO)O[C@@H]3CO` [γ-CD, γ-cyclodextrin], the “percentage remaining color (%)” value in data set [5] (setting [9]) is 71.5%; in data set [5] (setting [10]), 66.2%; in data set [5] (setting [11]), 88.1%; in data set [5] (setting [12]), 90.3%; in data set [5] (setting [13]) it was 69.2%; in data set [5] (setting [14]) it was 75.6%. Also, the “percentage remaining color (%)” value turned out to be 54.0% in data set [5] (setting [15]); 69.2% in data set [5] (setting [16]); 60.6% in data set [5] (setting [17]); 80.8% in data set [6] (setting [18]); 65.2% in data set [6] (setting [19]); 88.7% in data set [6] (setting [20]). Also, the “percentage remaining color (%)” value in data set [6] (setting [21]) is given as 37.6%; in data set [6] (setting [22]), 36.2%; in data set [6] (setting [23]), 79.4%; in data set [6] (setting [24]), 25.1%; in data set [6] (setting [25]), 62.4%; in data set [6] (setting [26]), 60.5%.
